Laboratory results taken from patent publication US20100298141A1, “SUBSTITUTED PYRIDINE N-OXIDE HERBICIDES” (E. I. DU PONT DE NEMOURS AND COMPANY, priority 2007, published 2010).

Columns and labels:
[1] = tested on: yellow nutsedge; experiment: Test C pre-/postemergence test; type: in vivo, Cyperus esculentus; settings: Postemergence; for Plant response rating, Nutsedge, Yellow: scale 0 to 100, 0 no effect, 100 complete control
Procedure, shortened: (§1)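 Compounds in a non-phytotoxic solvent with surfactant applied preemergence to seeded pots and, at the same time, postemergence to plants 2–18 cm tall (1- to 4-leaf stage). Paddy tests: pots flooded to 3 cm, compound applied into the water, depth held throughout.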

[2] = tested on: downy brome; experiment: Test C pre-/postemergence test; type: in vivo, Bromus tectorum; settings: Postemergence; for Plant response rating, Bromegrass, Downy: scale 0 to 100, 0 no effect, 100 complete control
Procedure, shortened: as §1

[3] = tested on: woolly cupgrass; experiment: Test C pre-/postemergence test; type: in vivo, Eriochloa villosa; settings: Postemergence; for Plant response rating, Cupgrass, Woolly: scale 0 to 100, 0 no effect, 100 complete control
Procedure, shortened: as §1

[4] = tested on: morningglory; experiment: Test C pre-/postemergence test; type: in vivo, Ipomoea coccinea; settings: Postemergence; for Plant response rating, Morningglory: scale 0 to 100, 0 no effect, 100 complete control
Procedure, shortened: as §1

[5] = tested on: Goosegrass; experiment: Test C pre-/postemergence test; type: in vivo, Eleusin indica; settings: Postemergence; for Plant response rating, Goosegrass: scale 0 to 100, 0 no effect, 100 complete control
Procedure, shortened: as §1

[6] = tested on: cocklebur; experiment: Test C pre-/postemergence test; type: in vivo, Xanthium strumarium; settings: Postemergence; for Plant response rating, Cocklebur: scale 0 to 100, 0 no effect, 100 complete control
Procedure, shortened: as §1

[7] = tested on: umbrella sedge; experiment: Test C flooded paddy test; type: in vivo, Cyperus difformis; settings: Flood
Procedure, shortened: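 Ratings were visual and made relative to untreated controls after 13 to 15 greenhouse days.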

[8] = tested on: lambsquarters; experiment: Test C pre-/postemergence test; type: in vivo, Chenopodium album; settings: Postemergence; for Plant response rating, Lambsquarters: scale 0 to 100, 0 no effect, 100 complete control
Procedure, shortened: as §1

[9] = tested on: common ragweed; experiment: Test C pre-/postemergence test; type: in vivo, Ambrosia elation; settings: Postemergence; for Plant response rating, Ragweed: scale 0 to 100, 0 no effect, 100 complete control
Procedure, shortened: as §1

[10] = tested on: johnsongrass; experiment: Test C pre-/postemergence test; type: in vivo, Sorghum halepense; settings: Postemergence; for Plant response rating, Johnsongrass: scale 0 to 100, 0 no effect, 100 complete control
Procedure, shortened: as §1

[11] = tested on: corn; experiment: Test C pre-/postemergence test; type: in vivo, Zea mays; settings: Postemergence; for Plant response rating, Corn: scale 0 to 100, 0 no effect, 100 complete control
Procedure, shortened: as §1

[12] = tested on: giant foxtail; experiment: Test A pre-/postemergence greenhouse test; type: in vivo, Setaria faberi; settings: for Plant response rating, Foxtail, Giant: 0 to 100 scale where 0 is no effect and 100 is complete control; for Foxtail, Giant plant response rating: 0 to 100 scale
Procedure, shortened: (§2)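 Visual injury ratings, made relative to untreated controls roughly ten days after treatment, cover both preemergence and postemergence application. Compounds in a surfactant-containing non-phytotoxic solvent were sprayed onto the soil surface after sowing and, simultaneously, onto young plants at the one- to two-leaf stage.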

[13] = tested on: crabgrass; experiment: Test A pre-/postemergence greenhouse test; type: in vivo, Digitaria sanguinalis; settings: for Plant response rating, Crabgrass, Large: 0 to 100 scale where 0 is no effect and 100 is complete control; for Crabgrass, Large plant response rating: 0 to 100 scale
Procedure, shortened: as §2

[14] = tested on: soybean; experiment: Test C pre-/postemergence test; type: in vivo, Glycine max; settings: Postemergence; for Plant response rating, Soybean: scale 0 to 100, 0 no effect, 100 complete control
Procedure, shortened: as §1

[15] = tested on: morningglory; experiment: Test A pre-/postemergence greenhouse test; type: in vivo, Ipomoea spp.; settings: for Plant response rating, Morningglory: 0 to 100 scale where 0 is no effect and 100 is complete control; for Morningglory plant response rating: 0 to 100 scale
Procedure, shortened: as §2

[16] = tested on: giant foxtail; experiment: Test C pre-/postemergence test; type: in vivo, Setaria faberii; settings: Postemergence; for Plant response rating, Foxtail, Giant: scale 0 to 100, 0 no effect, 100 complete control
Procedure, shortened: as §1

[17] = tested on: wheat; experiment: Test A pre-/postemergence greenhouse test; type: in vivo, Triticum aestivum; settings: for Plant response rating, Wheat: 0 to 100 scale where 0 is no effect and 100 is complete control; for Wheat plant response rating: 0 to 100 scale
Procedure, shortened: as §2

[18] = Postemergence, 500 g ai/ha, 0 is no effect, 100 is complete control
[19] = Preemergence, 125 g ai/ha, 0 no effect, 100 complete control

## Cn1nc(C(F)(F)F)c(C[S+]([O-])c2cccc[n+]2[O-])c1OCC(F)(F)C(F)(F)F (centres unmarked) [Compound 78]
[1]; 31 g ai/ha
  Plant response rating (0 to 100), Nutsedge, Yellow: 0
[1]; 62 g ai/ha
  Plant response rating, Nutsedge, Yellow: 0
[1]; 125 g ai/ha
  Plant response rating, Nutsedge, Yellow: 0
[1]; 250 g ai/ha
  Plant response rating, Nutsedge, Yellow: 0
[2]; 31 g ai/ha
  Plant response rating (0 to 100), Bromegrass, Downy: 0
[2]; 62 g ai/ha
  Plant response rating, Bromegrass, Downy: 0
[2]; 125 g ai/ha
  Plant response rating, Bromegrass, Downy: 0
[2]; 250 g ai/ha
  Plant response rating, Bromegrass, Downy: 0
[3]; 31 g ai/ha
  Plant response rating (0 to 100), Cupgrass, Woolly: 0
[3]; 62 g ai/ha
  Plant response rating, Cupgrass, Woolly: 0
[3]; 125 g ai/ha
  Plant response rating, Cupgrass, Woolly: 0
[3]; 250 g ai/ha
  Plant response rating, Cupgrass, Woolly: 20
[4]; 31 g ai/ha
  Plant response rating (0 to 100), Morningglory: 0
[4]; 62 g ai/ha
  Plant response rating, Morningglory: 0
[4]; 125 g ai/ha
  Plant response rating, Morningglory: 0
[4]; 250 g ai/ha
  Plant response rating, Morningglory: 0
[5]; 31 g ai/ha
  Plant response rating (0 to 100), Goosegrass: 0
[5]; 62 g ai/ha
  Plant response rating, Goosegrass: 0
[5]; 125 g ai/ha
  Plant response rating, Goosegrass: 10
[5]; 250 g ai/ha
  Plant response rating, Goosegrass: 60
[6]; 31 g ai/ha
  Plant response rating (0 to 100), Cocklebur: 0
[6]; 62 g ai/ha
  Plant response rating, Cocklebur: 0
[6]; 125 g ai/ha
  Plant response rating, Cocklebur: 0
[6]; 250 g ai/ha
  Plant response rating, Cocklebur: 0
[7]; 62 g ai/ha, scale 0 to 100 (0 no effect, 100 complete control)
  Plant response rating, Sedge, Umbrella: 75
[7]; 250 g ai/ha, scale 0 to 100, 0 no effect, 100 complete control, 13 to 15 days
  Plant response rating, Sedge, Umbrella: 100
[8]; 31 g ai/ha
  Plant response rating (0 to 100), Lambsquarters: 0
[8]; 62 g ai/ha
  Plant response rating, Lambsquarters: 0
[8]; 125 g ai/ha
  Plant response rating, Lambsquarters: 0
[8]; 250 g ai/ha
  Plant response rating, Lambsquarters: 0
[9]; 31 g ai/ha
  Plant response rating (0 to 100), Ragweed: 0
[9]; 62 g ai/ha
  Plant response rating (0 to 100), Ragweed: 0
[9]; 125 g ai/ha
  Plant response rating, Ragweed: 0
[9]; 250 g ai/ha
  Plant response rating, Ragweed: 0
[10]; 31 g ai/ha
  Plant response rating (0 to 100), Johnsongrass: 0
[10]; 62 g ai/ha
  Plant response rating, Johnsongrass: 0
[10]; 125 g ai/ha
  Plant response rating, Johnsongrass: 0
[10]; 250 g ai/ha
  Plant response rating, Johnsongrass: 45
[11]; 31 g ai/ha
  Plant response rating (0 to 100), Corn: 0
[11]; 62 g ai/ha
  Plant response rating, Corn: 0
[11]; 125 g ai/ha
  Plant response rating, Corn: 0
[11]; 250 g ai/ha
  Plant response rating, Corn: 20
[12]; Postemergence, 125 g ai/ha
  Plant response rating, Foxtail, Giant: 80
[12]; [18]
  Foxtail, Giant plant response rating: 80
[12]; [19]
  Foxtail, Giant plant response rating: 90
[12]; Preemergence, 500 g ai/ha
  Plant response rating, Foxtail, Giant: 100
[13]; Postemergence, 125 g ai/ha
  Plant response rating, Crabgrass, Large: 70
[13]; [18]
  Crabgrass, Large plant response rating: 80
[13]; [19]
  Crabgrass, Large plant response rating: 30
[13]; Preemergence, 500 g ai/ha
  Plant response rating, Crabgrass, Large: 100
[14]; 62 g ai/ha
  Plant response rating (0 to 100), Soybean: 20
[14]; 125 g ai/ha
  Plant response rating, Soybean: 60
[14]; 250 g ai/ha
  Plant response rating, Soybean: 65
[15]; Postemergence, 125 g ai/ha
  Plant response rating, Morningglory: 30
[15]; [18]
  Morningglory plant response rating: 60
[15]; [19]
  Morningglory plant response rating: 20
[15]; Preemergence, 500 g ai/ha
  Plant response rating, Morningglory: 80
[16]; 31 g ai/ha
  Plant response rating (0 to 100), Foxtail, Giant: 0
[16]; 62 g ai/ha
  Plant response rating, Foxtail, Giant: 0
[16]; 125 g ai/ha
  Plant response rating, Foxtail, Giant: 45
[16]; 250 g ai/ha
  Plant response rating, Foxtail, Giant: 45
[17]; Postemergence, 125 g ai/ha
  Plant response rating, Wheat: 30
[17]; [18]
  Wheat plant response rating: 60
[17]; [19]
  Wheat plant response rating: 30
[17]; Preemergence, 500 g ai/ha
  Plant response rating, Wheat: 100
